{"source": "paper PMC1976805", "about": "“Preclinical pharmacokinetics of benznidazole” (British Journal of Cancer, 1984)", "key": {"[1]": {"assay": "Whole plasma pharmacokinetics of benznidazole in mice (HPLC)", "type": "in vivo, mouse", "conditions": "for half-life / Tmax: mouse; for Tmax: read-out: time of peak plasma concentration (converted)", "source_text": "Br. J. Cancer (1984), 50, 291-303 Preclinical pharmacokinetics of benznidazole P. Workman', R.A.S. White2, M.I. Walton', L.N. Owen2* & P.R. Twentyman' 1MRC Clinical Oncology and Radiotherapeutics Unit, MRC Centre, Hills Road, Cambridge CB2 2QH, and 2Department of Clinical Veterinary Medicine, University of Cambridge, Madingley Road, Cambridge CB3 OES, UK. […] We have investigated the detailed pharmacokinetics of benznidazole in mice, dogs and sheep to provide a data base for the estimation of doses required for chemosensitization in man. Pharmacokinetic behaviour was linear except at high doses in mice. Absorption was fairly rapid and bioavailability was complete following both i.p. administration in mice and oral administration in dogs. Elimination t4 values were longer than for MISO, being 90 min in mice, 4-5 h in sheep and 9-11 h in dogs. At doses giving linear kinetics, peak whole plasma concentrations per administered mgkg-1 were 0.75 jigml-1 for the i.p. route in mice and 1.8jugmlP' for the oral route in dogs. Though between 39 and 59% of plasma benznidazole was bound to protein, tissue penetration was generally good. Tissue/whole plasma ratios ranged from 59-99% for transplantable mouse tumours and from 14-70% for spontaneous dog neoplasms. Nervous tissue penetration was similar to that in tumours: brain/whole plasma ratios averaged between 61 and 76% in mice and 42% in dogs, while peripheral nerve/whole plasma ratios in dogs averaged 74%. Mean liver/whole plasma ratios were 42% and 71% in BALB/c and C3H/He mouse strains respectively. Only -5% of the administered dose was excreted unchanged in the urine, indicating the likelihood of extensive metabolism. […] Enhancement of CCNU response is likely to require circulating benznidazole concentrations of 10-30 pgml-1 and we predict that these will be obtained with oral doses of 6-20 mgkg- 1 in man. […] This enhancement, or chemosensitization, is usually greater than that seen in dose-limiting normal tissues, resulting in an improved therapeutic index. Because of the relatively high doses of MISO usually required for chemosensitization in mice (see above refs), and also because of its neurotoxicity in man (Dische et al., 1977), we have been interested in finding an improved chemosensitizer. […] The lipophilic ana- logue benznidazole (N-benzyl-(2-nitroimidazolyl) acetamide, Ro 07-1051; Radanil; Roche), the structure of which is shown in Figure 1, was selected for detailed study because of its ability to *Present address: Animal Health Trust, Small Animals Centre, Lanwades Park, Kennett, Newmarket, Suffolk CB8 7PN, UK. Correspondence: P. Workman. […] These findings have been confirmed independently by Siemann et al. (1983). Although benznidazole is used quite widely in South America to treat patients with the trypanosomal infection Chagas' disease or with mucotaneous Leishmaniasis (Barclay et al., 1978; Cerisola et al., 1978; Coura et al., 1978; Fava et al., 1978), apart from our preliminary studies (White et al., 1982) the only published data on its pharmaco- kinetics are for human plasma concentrations measured by polarography (Raaflub & Ziegler, 1979; Raaflub, 1980). Here we describe the pharmacokinetics of benznidazole in the mouse, sheep and dog, as determined by high-performance liquid chromatography (HPLC). […] The Macmillan Press Ltd., 1984 292 P. WORKMAN et al. particularly on plasma and tumour concentrations, have been used as a basis for the estimation of the benznidazole doses required in a Phase I trial of benznidazole plus CCNU, at present ongoing in our Unit. Materials and methods Animals and tumours Adult inbred male BALB/c mice were obtained from OLAC (Southern) Ltd. (Bicester, UK) and adult inbred C3H/He mice of both sexes from OLAC and our own breeding colony. Mice were housed in plastic cages on sawdust bedding made from soft white woods, and allowed laboratory chow and water ad lib. They were used at 20-35 g body wt."}, "[2]": {"assay": "Tissue penetration in dogs bearing spontaneous neoplasms", "type": "in vivo, dog", "conditions": "for Kp: dog", "source_text": "Br. J. Cancer (1984), 50, 291-303 Preclinical pharmacokinetics of benznidazole P. Workman', R.A.S. White2, M.I. Walton', L.N. Owen2* & P.R. Twentyman' 1MRC Clinical Oncology and Radiotherapeutics Unit, MRC Centre, Hills Road, Cambridge CB2 2QH, and 2Department of Clinical Veterinary Medicine, University of Cambridge, Madingley Road, Cambridge CB3 OES, UK. […] We have investigated the detailed pharmacokinetics of benznidazole in mice, dogs and sheep to provide a data base for the estimation of doses required for chemosensitization in man. Pharmacokinetic behaviour was linear except at high doses in mice. Absorption was fairly rapid and bioavailability was complete following both i.p. administration in mice and oral administration in dogs. Elimination t4 values were longer than for MISO, being 90 min in mice, 4-5 h in sheep and 9-11 h in dogs. At doses giving linear kinetics, peak whole plasma concentrations per administered mgkg-1 were 0.75 jigml-1 for the i.p. route in mice and 1.8jugmlP' for the oral route in dogs. Though between 39 and 59% of plasma benznidazole was bound to protein, tissue penetration was generally good. Tissue/whole plasma ratios ranged from 59-99% for transplantable mouse tumours and from 14-70% for spontaneous dog neoplasms. Nervous tissue penetration was similar to that in tumours: brain/whole plasma ratios averaged between 61 and 76% in mice and 42% in dogs, while peripheral nerve/whole plasma ratios in dogs averaged 74%. Mean liver/whole plasma ratios were 42% and 71% in BALB/c and C3H/He mouse strains respectively. Only -5% of the administered dose was excreted unchanged in the urine, indicating the likelihood of extensive metabolism. […] Enhancement of CCNU response is likely to require circulating benznidazole concentrations of 10-30 pgml-1 and we predict that these will be obtained with oral doses of 6-20 mgkg- 1 in man. […] This enhancement, or chemosensitization, is usually greater than that seen in dose-limiting normal tissues, resulting in an improved therapeutic index. Because of the relatively high doses of MISO usually required for chemosensitization in mice (see above refs), and also because of its neurotoxicity in man (Dische et al., 1977), we have been interested in finding an improved chemosensitizer. […] The lipophilic ana- logue benznidazole (N-benzyl-(2-nitroimidazolyl) acetamide, Ro 07-1051; Radanil; Roche), the structure of which is shown in Figure 1, was selected for detailed study because of its ability to *Present address: Animal Health Trust, Small Animals Centre, Lanwades Park, Kennett, Newmarket, Suffolk CB8 7PN, UK. Correspondence: P. Workman. […] These findings have been confirmed independently by Siemann et al. (1983). Although benznidazole is used quite widely in South America to treat patients with the trypanosomal infection Chagas' disease or with mucotaneous Leishmaniasis (Barclay et al., 1978; Cerisola et al., 1978; Coura et al., 1978; Fava et al., 1978), apart from our preliminary studies (White et al., 1982) the only published data on its pharmaco- kinetics are for human plasma concentrations measured by polarography (Raaflub & Ziegler, 1979; Raaflub, 1980). Here we describe the pharmacokinetics of benznidazole in the mouse, sheep and dog, as determined by high-performance liquid chromatography (HPLC). […]"}, "human plasma": {"tested_on": "human plasma", "conditions": "cited from earlier work"}, "plasma proteins": {"tested_on": "plasma proteins", "assay": "Plasma protein binding in sheep (plasma ultrafiltrate)", "type": "in vivo", "source_text": "Br. J. Cancer (1984), 50, 291-303 Preclinical pharmacokinetics of benznidazole P. Workman', R.A.S. White2, M.I. Walton', L.N. Owen2* & P.R. Twentyman' 1MRC Clinical Oncology and Radiotherapeutics Unit, MRC Centre, Hills Road, Cambridge CB2 2QH, and 2Department of Clinical Veterinary Medicine, University of Cambridge, Madingley Road, Cambridge CB3 OES, UK. […] We have investigated the detailed pharmacokinetics of benznidazole in mice, dogs and sheep to provide a data base for the estimation of doses required for chemosensitization in man. Pharmacokinetic behaviour was linear except at high doses in mice. Absorption was fairly rapid and bioavailability was complete following both i.p. administration in mice and oral administration in dogs. […] Although benznidazole is used quite widely in South America to treat patients with the trypanosomal infection Chagas' disease or with mucotaneous Leishmaniasis (Barclay et al., 1978; Cerisola et al., 1978; Coura et al., 1978; Fava et al., 1978), apart from our preliminary studies (White et al., 1982) the only published data on its pharmaco- kinetics are for human plasma concentrations measured by polarography (Raaflub & Ziegler, 1979; Raaflub, 1980). Here we describe the pharmacokinetics of benznidazole in the mouse, sheep and dog, as determined by high-performance liquid chromatography (HPLC). […]"}}, "note": "Where two headings read alike, the source gives them in different places."}
{"smiles": "O=C(Cn1ccnc1[N+](=O)[O-])NCc1ccccc1", "note": "[benznidazole, N-benzyl-(2-nitroimidazolyl) acetamide]", "values": [{"measurement": "peak whole plasma concentration (+2 s.e.)", "setting": "[1]; BALB/c mice, 650 mg kg-1 i.p.", "value": "105+15 µg ml-1"}, {"measurement": "blood/whole plasma concentration ratio, overall mean (s.e., n=16)", "setting": "[1]; BALB/c mice, 650 mg kg-1 i.p. in arachis oil, 45-135 min", "value": "116+4%"}, {"measurement": "whole plasma concentration remaining at 24 h", "setting": "[1]; BALB/c mice, 650 mg kg-1 i.p., experiment of Figure 3", "value": 15, "unit": "µg/mL"}, {"measurement": "half-life", "setting": "[1]; male, plasma, ip, BALB/c mice, 26 mg kg-1 i.p., suspension in 50% polyethylene glycol, read-out: elimination half-life (95% confidence limits)", "value": 1.55, "unit": "h"}, {"measurement": "half-life", "setting": "[1]; male, plasma, ip, BALB/c mice, 68 mg kg-1 (so in the source) i.p., suspension in 50% polyethylene glycol, read-out: elimination half-life (95% confidence limits)", "value": 1.6, "unit": "h"}, {"measurement": "Tmax", "setting": "[1]; male, plasma, ip, BALB/c mice, 650 mg kg-1 i.p.", "value": 1, "unit": "h"}, {"measurement": "Tmax", "setting": "[1]; male, plasma, ip, BALB/c mice, 26 and 78 mg kg-1 i.p.", "value": "0.25 to 0.5", "unit": "h"}, {"measurement": "half-life", "setting": "[1]; male, plasma, iv, BALB/c mice, 32.5 mg kg-1 i.v. in dimethyl sulphoxide, read-out: elimination half-life (95% confidence limits)", "value": 1.98, "unit": "h"}, {"measurement": "half-life", "setting": "[1]; male, plasma, iv, BALB/c mice, 65 mg kg-1 i.v. in dimethyl sulphoxide, read-out: elimination half-life (95% confidence limits)", "value": 1.95, "unit": "h"}, {"measurement": "peak whole plasma concentration that would be produced", "setting": "[1]; mice, 13 mg kg-1 i.p.", "value": "about 10 µg ml-1"}, {"measurement": "whole plasma concentration (dose-peak concentration curve, Figure 4)", "setting": "[1]; mice, 26 mg kg-1 i.p.", "value": 20, "unit": "µg/mL"}, {"measurement": "whole plasma concentration", "setting": "[1]; mice, 78 mg kg-1 i.p., discussion summary", "value": 30, "unit": "µg/mL"}, {"measurement": "whole plasma concentration (dose-peak concentration curve, Figure 4)", "setting": "[1]; mice, 650 mg kg-1 i.p.", "value": 90, "unit": "µg/mL"}, {"measurement": "whole plasma concentration remaining at 24 h", "setting": "[1]; mice, 650 mg kg-1 i.p., some other experiments (undetectable)", "value": "< 0.2", "unit": "µg/mL"}, {"measurement": "peak whole plasma concentration per administered mg kg-1", "setting": "[1]; mice, i.p. route, doses giving linear kinetics", "value": 0.75, "unit": "micrograms ml-1"}, {"measurement": "half-life", "setting": "[1]; plasma, mice, summary value, read-out: elimination t1/2", "value": 1.5, "unit": "h"}, {"measurement": "metabolites detectable by HPLC with u.v. detection at 313 nm", "setting": "[1]; plasma, urine and tissues of all species studied", "value": "no evidence of metabolites"}, {"measurement": "tissue/whole plasma ratio, overall mean + s.e.", "setting": "[2]; 24 neoplastic tissue samples (excluding cyst fluid)", "value": "50+3%"}, {"measurement": "absolute neoplastic tissue concentration, overall mean+s.e.", "setting": "[2]; 24 samples, 1.67-4.5 h, normalised to 12.5 mg kg-1 oral", "value": "5.6 +0.5 µg g-1"}, {"measurement": "Kp", "setting": "[2]; liver/whole plasma, first of the two values obtained, read-out: liver/whole plasma ratio", "value": 0.14}, {"measurement": "Kp", "setting": "[2]; liver/whole plasma, second of the two values obtained, read-out: liver/whole plasma ratio", "value": 0.51}, {"measurement": "Kp", "setting": "[2]; tumour (spontaneous neoplastic tissue), po, neoplastic tissues, 12.5 (one dog 25) mg kg-1 oral, 1.67-4.5 h, read-out: tissue/whole plasma ratios, range", "value": "0.14 to 0.7"}, {"measurement": "binding to plasma proteins", "setting": "human plasma; ref Raaflub & Ziegler, 1979", "value": 44, "unit": "%"}, {"measurement": "binding to plasma proteins", "setting": "human plasma; ref Workman & Brown, 1981", "value": 58, "unit": "%"}, {"measurement": "fraction unbound", "setting": "plasma proteins; male, Clun Forest/Border Leicester cross, plasma, iv, sheep 2, 4 mg kg-1 i.v., read-out: protein binding (s.e., n=6) (converted)", "value": 0.58}, {"measurement": "binding to plasma proteins", "setting": "plasma proteins; sheep, discussion summary", "value": 42, "unit": "%"}]}
